# Source: paper PMC10803328 (Scientific Reports, 2024)
# “And” between values parts separate entries of the source, which are not always exact repeats. Identical values can stand only once.
# What was measured:
# [1] = test system: efflux transporters (P-gp and BCRP); experiment: PET imaging in wild-type and dual efflux transporter knockout mice; type: in vivo, mouse
# Description: (§1) All PET imaging studies were performed with a Mediso LFER 150 preclinical scanner (nanoScan PET/CT). Brain and brain region radioactivity uptake was expressed by standardized uptake value (SUV) which normalizes for injected radioactivity and monkey body weight, as follows: SUV = [(% injected dose per g tissue) × body weight in g]/100.
# Radioligand was injected intravenously via a tail vein catheter followed by PET imaging for 90 min. Whole brain uptake in SUV was compared between wild type and knockout mice.
# [2] = Plasma free fraction by ultrafiltration, pooled human standard plasma; type: in vitro ADME
# Description: (§2) In vitro stability was calculated by dividing the relative composition of the blood or brain homogenate determined with radio-HPLC by the initial radiochemical purity of the radioligand. […] The mixture was incubated at room temperature for 10 min and then processed exactly as described previously. The ultrafiltration components that contained high radioactivity were allowed time for radioactivity decay to within the optimal range of the γ-counter before they were counted again.
# [3] = Plasma free fraction, monkey plasma; type: in vitro ADME, rhesus monkey; conditions: baseline
# Description: as §2
# [4] = PET imaging of brain in wild-type rats; type: in vivo, rat; conditions: i.v.
# Description: as §1
# Animals were maintained under anesthesia with 1.5% isoflurane throughout the scan. Radioligand was injected intravenously via a penile vein catheter followed by PET imaging for 90 min. Brain uptake was expressed as standardized uptake value (SUV, concentration normalized by injected activity and body weight) and compared between the wild-type and self-blocked conditions.
# [5] = Plasma free fraction by ultrafiltration, rat plasma; type: in vitro ADME; conditions: fresh rat plasma, read-out: rat plasma free fraction (fP)
# Description: as §2
# PSAM^4-GlyR = PSAM^4-GlyR (Homo sapiens, UniProt P23415+P36544, L131G/Q139L/Y217F); set-up: expressed in transfected cells; method as in PMID 30872534, PMID 24556591, PMID 36279419; conditions: read-out: PSAM^4-GlyR (Ki); in vitro binding assay, literature; cited from earlier work
# [6] = In vitro stability in rat brain homogenate, whole blood and plasma; type: in vitro ADME
# Description: as §2
# Five milliliters of anticoagulated blood (STD-A) and brain (1.8 g) were harvested from a wild-type rat (~ 450 g) and used in the in vitro assays. The brains were immediately weighed and homogenized with twice their weights (3.6 mL) of ice cold 0.9% NaCl solution. Plasmas were separated from whole blood via centrifugation. […] Following incubation, aliquots (450 µL) were removed for radio-analysis and processed as detailed above for radio-HPLC analysis.
# Anticoagulated blood (STD-A; 5 mL) and brain (1.8 g) were harvested from a wild-type rat (~ 450 g) and used for the in vitro assays. The brains were immediately weighed and homogenized with twice their weights (3.6 mL) of ice-cold 0.9% saline. Plasma was separated from whole blood via centrifugation. […] Aliquots (450 µL) were then removed for radio analysis and processed as detailed above for radio-HPLC analysis.
# [7] = Ex vivo measurements of radioactivity in rat brain and blood 100 min after i.v. injection
# Description: Other experimental parameters that governed this study are listed in Supporting Information, Table S1. […] The rats were sacrificed via thoracotomy 100 min after radioligand injection. Anticoagulated blood was drawn from the myocardium followed by decapitation and harvesting of the brain. Each brain was removed, weighed, and immediately subjected to radio analysis after counting its concomitant radioactivity. Whole blood samples were removed and centrifuged to separate the plasma. Whole blood (300 µL each) and plasma samples (300 µL each) were also quantified for radioactivity in an automatic γ-counter (model 2480 Wizard 2; Perkin-Elmer) with an electronic window set at 360–1800 keV (counting efficiency, 51.84%). Briefly, plasma samples (~ 450 µL) were deproteinated with acetonitrile treatment (720 µL). The radioactivity of various plasma and brain tissues were counted in the γ-counter. Brain tissues were then homogenized in acetonitrile (1.0 mL) using a handheld tissue Tearor (model 985-370; BioSpec Products Inc; Bartlesville, OK), followed by a second homogenization in water (1.0 mL). The homogenates were counted in the γ-counter to calculate the percentage recovery of radioactivity in the acetonitrile extracts. Corrections of all tissue assays for physical decay were made with a half-life of 20.385 min. The homogenates were then centrifuged at 10,000g for 2 min. The clear supernatants were injected onto the HPLC column through nylon filters. For each sample, radioactivity in the resulting precipitate was used to calculate the percent recovery of activity into the acetonitrile supernatant.
# [8] = Lipophilicity measurement (logD7.4) by partition; type: physicochemical; conditions: n = 6
# Description: Aliquots were distributed to 16 borosilicate disposable culture tubes (13 × 100 mm). The tubes were divided into two groups of […]. […] Extraction was performed by vortexing the tubes with their content for 1 min. The tubes were then centrifuged for 1 min. The organic and the aqueous phases were separated, and each phase was then sampled (50 µL) and counted separately in a well-type γ-counter (model 1480 Wizard; Perkin-Elmer) with an electronic window set between 360 and 1800 keV. The remaining two tubes, containing the radioactivity in buffer, served as stability measures for the radioligand. […] The aqueous phases were injected onto the HPLC. The resulting radiochromatograms provided correction factors for the γ-counter counts, of the aqueous samples, to determine parent radioligand radioactivity only (corrected radioactivity)[32]. LogD7.4octanol and logD7.4cyclohexane were each calculated as log((cpm in organic phase)/(corrected cpm in aqueous phase)).
# [9] = in vitro incubation at 37 °C, rat
# [10] = Rat-3, blocked with uPSEM792, 100 min
# [11] = Rat-3, blocked with uPSEM792 i.v. 15 min before radioligand, 100 min
# [12] = baseline rats (Rat-1, Rat-2), 100 min
# [13] = baseline rats (Rat-1, Rat-2), 100 min after injection
# [14] = rat, ex vivo, 100 min after i.v. injection, HPLC
# Chain of PSAM^4-GlyR (P36544+P23415 fused P36544:L131G/P36544:Q139L/P36544:Y217F): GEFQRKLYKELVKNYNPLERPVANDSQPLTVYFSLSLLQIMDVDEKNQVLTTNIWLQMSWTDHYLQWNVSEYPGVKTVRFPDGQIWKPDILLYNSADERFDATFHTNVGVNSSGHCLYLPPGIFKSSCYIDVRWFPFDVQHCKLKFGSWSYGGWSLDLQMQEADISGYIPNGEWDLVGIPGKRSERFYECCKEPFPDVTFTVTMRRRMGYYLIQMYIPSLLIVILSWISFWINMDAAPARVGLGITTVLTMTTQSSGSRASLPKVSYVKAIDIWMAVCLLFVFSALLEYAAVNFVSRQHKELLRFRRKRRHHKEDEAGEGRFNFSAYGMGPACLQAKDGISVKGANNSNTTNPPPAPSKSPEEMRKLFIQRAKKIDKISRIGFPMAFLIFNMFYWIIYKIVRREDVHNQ
compound,measurement,setting,value
[11CH3]n1c(=O)cnc2cc3c(cc21)C1CNCC3C1 (stereo not drawn) [[^11C]uPSEM792],substrate for efflux transporters in vivo,[1]; dual P-gp and BCRP knockout vs wild-type mice,substrate for efflux transporters in vivo
same,early peak brain radioactivity uptake,"[1]; dual efflux transporter (P-gp and BCRP) knockout mice, i.v.",~ 0.7 SUV
same,"fraction unbound at 10 min, 2.6 MBq/mL",[2],0.876
same,fP (%),[3]; PSAM^4-GlyR monkey,89.42%
same,fP (%),[3]; non-transduced healthy monkey,89.29%
same,peak whole brain radioactivity uptake,[4],~ 0.6 SUV and < 0.6 SUV
same,time of peak whole brain radioactivity,[4],5 min
same,"fraction unbound at 10 min, 2.6 MBq/mL",[5],0.898
same,Ki,PSAM^4-GlyR,0.7 nM
same,in vitro stability in homogenized non-perfused rat brain,[6]; 30 min at 37 °C,94%
same,in vitro stability in rat plasma,[6]; 30 min at 37 °C,85.4%
same,in vitro stability in rat whole blood,[6]; 30 min at 37 °C,83.8%
same,"HPLC Composition (%), in vitro fresh rat brain",[6]; in vitro incubation at 37 °C,92%
same,"HPLC Composition (%), in vitro plasma",[6]; [9],83%
same,"HPLC Composition (%), in vitro whole blood",[6]; [9],82%
same,Ex vivo brain,[7]; [10],0.72 nM
same,Ex vivo brain (SUV),[7]; [10],0.401 SUV
same,Ex vivo plasma parent (SUV),[7]; [10],0.064 SUV
same,Ex vivo whole blood (SUV),[7]; [10],0.163 SUV
same,"HPLC Composition (%), ex vivo brain",[7]; [11],68.3%
same,"HPLC Composition (%), ex vivo plasma",[7]; [11],37.1%
same,Ex vivo brain,[7]; [12],0.68 nM and 0.83 nM
same,Ex vivo brain (SUV),[7]; [12],0.407 SUV and 0.468 SUV
same,Ex vivo plasma parent (SUV),[7]; [12],0.063 SUV and 0.064 SUV
same,Ex vivo whole blood (SUV),[7]; [12],0.141 SUV and 0.163 SUV
same,"HPLC Composition (%), ex vivo brain",[7]; [13],78.3% and 75.6%
same,"HPLC Composition (%), ex vivo plasma",[7]; [13],43.0% and 37.9%
same,total radioactivity concentration in rat brain,"[7]; ex vivo, 100 min after i.v. injection",~ 0.4 SUV
same,Kp at 100 min,"[7]; male, brain and plasma, intravenous, rat, 100 min, read-out: fold lower concentration of unchanged radioligand in plasma than in brain",6.7
same,concentration of unchanged radioligand in plasma,"[7]; rat, 100 min, n = 3",0.064 ± 0.001 SUV
same,unchanged radioligand as share of radioactivity in brain,[7]; [14],75.6%
same,unchanged radioligand fraction of all radioactivity in plasma,[7]; [14],37.9%
same,ΔLogD7.4 (logD7.4(octanol) − logD7.4(cyclohexane)),[8],2.45 ± 0.03
